Like-named read-outs stand apart in the source and are kept apart here.
Assays:
[1] = system: carrot (Daucus carota) DHS; set-up: method as in Suzich et al., 1985; settings: ref Suzich et al., 1985; cited from earlier work
[2] = system: AthDHS1 and AthDHS2 mixtures; assay: DHS assay using mixtures of AthDHS1 and AthDHS2 recombinant enzymes; type: biochemical, Arabidopsis thaliana; settings: 1 mM effector; molar ratios 0, 0.25, 0.5, 0.75, 1
Experimental: Next, we thought that the presence of non-inhibited DHS isoforms (e.g. AthDHS1) may affect the AAA sensitivity of AthDHS2, given that AthDHSs are known to function as tetrameric or dimeric forms ([Suzich et al., 1985]; [Pinto et al., 1986]; [Webby et al., 2005]). To test this, the recombinant enzymes of AAA non-inhibited AthDHS1 and AAA-inhibited AthDHS2 were mixed with different ratios (0, 0.25, 0.5, 0.75, and 1) and DHS activity assays were conducted with different inhibitors. Based on the kinetic parameters and the regulatory behaviors of individual AthDHSs, the expected level of DHS activity was first calculated and plotted (dotted lines in Figure 5, D, see the “Materials and methods” section). […] Similar results were obtained for the AthDHS2 and AthDHS3 mixture (Figure 5, E).
Unless otherwise noted, DHS enzymatic activity was monitored as previously described ([Liu et al., 2008]), with several optimizations for high-throughput assays with eight-strip PCR tubes and a thermal cycler. The enzyme solution (7.7 µL) containing 50 mM HEPES (pH 7.4) was preincubated with an effector molecule(s) at room temperature for 10 min. For assays using recombinant protein and enzyme fraction isolated from plant leaves, 0.01–0.05 µg and approximately 50 µg of proteins were used, respectively. After adding 0.5 µL of 0.1 M DTT, the samples were further incubated at room temperature for 15 min. […] The enzyme reaction was started by adding 6.8 µL of the substrate solution, then incubated at 37°C for 20 min, and terminated by adding 30 µL of 0.6 M trichloroacetic acid. After brief centrifugation, 5 µL of 200 mM NaIO4 (sodium meta-periodate) in 9 N H3PO4 was added to oxidize the enzymatic product and incubate at 25°C for 20 min. […] The absorbance of the pink supernatant was read at 549 nm with the microplate reader (Infinite 200 PRO, TECAN, Männedorf, Switzerland) to calculate DAHP production with the molar extinction coefficient at 549 nm (ε = 549 nm) of 4.5 × 10^4/M/cm. […]

AthDHS1 = target: T1, AthDHS1 (Arabidopsis thaliana, UniProt P29976); assay: DHS enzymatic activity assay with recombinant AthDHS1; type: biochemical; settings: for effect on AthDHS1 activity (in words): 1 mM effector; for IC50: varied effector concentrations, read-out: IC50 of AthDHS1 inhibition
T1 construct: AthDHS1; residues 49–525; hexa-histidine; made in house; host or cells: E. coli Rosetta2 (DE3), pET28a
T1 sequence (P29976 49-525): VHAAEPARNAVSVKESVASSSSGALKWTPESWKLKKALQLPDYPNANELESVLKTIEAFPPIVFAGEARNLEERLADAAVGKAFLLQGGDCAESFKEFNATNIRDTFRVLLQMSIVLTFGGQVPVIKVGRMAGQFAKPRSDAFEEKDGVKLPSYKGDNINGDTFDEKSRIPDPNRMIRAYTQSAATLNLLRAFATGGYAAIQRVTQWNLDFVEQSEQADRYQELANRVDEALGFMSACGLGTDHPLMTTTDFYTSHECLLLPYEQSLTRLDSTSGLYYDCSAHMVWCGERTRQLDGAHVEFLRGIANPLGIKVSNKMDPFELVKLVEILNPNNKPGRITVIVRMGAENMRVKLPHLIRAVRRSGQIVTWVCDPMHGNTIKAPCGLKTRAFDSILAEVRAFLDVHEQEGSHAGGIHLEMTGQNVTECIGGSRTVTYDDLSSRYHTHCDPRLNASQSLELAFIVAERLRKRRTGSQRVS
Experimental: (§1) Unless otherwise noted, DHS enzymatic activity was monitored as previously described ([Liu et al., 2008]), with several optimizations for high-throughput assays with eight-strip PCR tubes and a thermal cycler. The enzyme solution (7.7 µL) containing 50 mM HEPES (pH 7.4) was preincubated with an effector molecule(s) at room temperature for 10 min. For assays using recombinant protein and enzyme fraction isolated from plant leaves, 0.01–0.05 µg and approximately 50 µg of proteins were used, respectively. After adding 0.5 µL of 0.1 M DTT, the samples were further incubated at room temperature for 15 min. […] The enzyme reaction was started by adding 6.8 µL of the substrate solution, then incubated at 37°C for 20 min, and terminated by adding 30 µL of 0.6 M trichloroacetic acid. After brief centrifugation, 5 µL of 200 mM NaIO4 (sodium meta-periodate) in 9 N H3PO4 was added to oxidize the enzymatic product and incubate at 25°C for 20 min. To stop the oxidation reaction, 20 µL of 0.75 M NaAsO2 (sodium arsenite), which was dissolved in 0.5 M Na2SO4 and 0.05 M H2SO4, was immediately mixed. After 5 min of incubation at room temperature, one-third of the sample solution was transferred to a new tube to be mixed with 50 µL of 40 mM thiobarbituric acid and incubated at 99°C for 15 min in a thermal cycler. Developed pink chromophore was extracted by putting the final solutions with 600 µL of cyclohexanone in eight-strip solvent-resistant plastic tubes, mixing vigorously and centrifuging them at 4,500 × g for 3 min to separate water- and cyclohexanone-based layers. The absorbance of the pink supernatant was read at 549 nm with the microplate reader (Infinite 200 PRO, TECAN, Männedorf, Switzerland) to calculate DAHP production with the molar extinction coefficient at 549 nm (ε = 549 nm) of 4.5 × 10^4/M/cm. Reaction mixtures with boiled enzyme or without any substrates were run in parallel and used as negative controls to estimate the background signal for recombinant enzymes or enzymatic fraction from plant tissues, respectively.
(§2) For determination of kinetic parameters, the data of enzymatic activities measured in the presence of various concentration of substrates were calculated with the Michaelis–Menten equation in Graphpad Prism 6 (GraphPad Software, San Diego, CA, USA).

[3] = system: DHS activities from maize (Zea mays) shoots; set-up: method as in Graziana and Boudet, 1980; settings: 1 mM; ref Graziana and Boudet, 1980; cited from earlier work
AthDHS3 = AthDHS3 (Arabidopsis thaliana, UniProt Q9SK84); assay: DHS enzymatic activity assay with recombinant AthDHS3; type: biochemical; settings: for effect on AthDHS3 activity (in words): 1 mM effector
Sequence of AthDHS3 (Q9SK84 entry or part of it): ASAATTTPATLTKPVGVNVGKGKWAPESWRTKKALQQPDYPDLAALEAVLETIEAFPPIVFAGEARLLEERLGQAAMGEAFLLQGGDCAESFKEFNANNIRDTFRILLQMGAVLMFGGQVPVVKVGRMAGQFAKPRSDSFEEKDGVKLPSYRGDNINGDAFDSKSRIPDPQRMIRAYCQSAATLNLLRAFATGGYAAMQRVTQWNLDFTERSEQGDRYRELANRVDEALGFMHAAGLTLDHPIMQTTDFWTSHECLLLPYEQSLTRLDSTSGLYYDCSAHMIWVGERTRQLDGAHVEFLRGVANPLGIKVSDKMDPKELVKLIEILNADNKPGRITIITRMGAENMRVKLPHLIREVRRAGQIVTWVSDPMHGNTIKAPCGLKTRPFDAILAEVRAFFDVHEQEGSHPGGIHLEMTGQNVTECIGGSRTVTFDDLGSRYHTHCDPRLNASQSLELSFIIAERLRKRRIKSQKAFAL
Experimental: as §1, §2

AthDHS2 = target: T2, AthDHS2 (Arabidopsis thaliana, UniProt Q00218); assay: DHS enzymatic activity assay with recombinant AthDHS2; type: biochemical; settings: for IC50: varied effector concentrations, read-out: IC50 of AthDHS2 inhibition
T2 construct: AthDHS2; residues 34–507; hexa-histidine; made in house; host or cells: E. coli Rosetta2 (DE3), pET28a
T2 sequence (Q00218 34-507): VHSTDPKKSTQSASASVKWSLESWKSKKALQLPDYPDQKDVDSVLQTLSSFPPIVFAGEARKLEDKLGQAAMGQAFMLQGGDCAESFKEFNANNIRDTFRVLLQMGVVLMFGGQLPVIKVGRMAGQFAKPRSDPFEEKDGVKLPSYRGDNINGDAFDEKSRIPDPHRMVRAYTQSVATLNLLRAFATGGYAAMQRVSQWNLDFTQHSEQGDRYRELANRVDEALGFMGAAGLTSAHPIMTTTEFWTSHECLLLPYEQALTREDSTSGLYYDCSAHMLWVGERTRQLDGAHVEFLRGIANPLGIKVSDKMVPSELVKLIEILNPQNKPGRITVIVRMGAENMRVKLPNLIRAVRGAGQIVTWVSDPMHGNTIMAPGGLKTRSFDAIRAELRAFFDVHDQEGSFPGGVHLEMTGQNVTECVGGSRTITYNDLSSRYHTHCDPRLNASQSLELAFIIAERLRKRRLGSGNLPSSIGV

[4] = system: root growth of Arabidopsis Col-0 and dhs mutants; assay: Chemical feeding experiment, root length of 10-day-old seedlings; type: in vivo, Arabidopsis thaliana; settings: for IC50: Arabidopsis thaliana
Experimental: Chemical feeding experiments were carried out as described previously ([de Oliveira et al., 2019]) with some modifications. Seedlings were grown on agar plates containing 0.5 MS with 1% sucrose, 0.8% agar, and 2.5 mM MES at pH 5.7 in the growth chamber where we grew other plants in soil. AAAs and/or shikimate were added to autoclaved media after cooling down to temperatures below 55°C. Plants were grown on the same plate side by side to minimize environmental effects, and multiple plates were prepared to obtain replications. Root lengths of 10-day-old seedlings were quantified by ImageJ.

[5] = system: DHS activity from the spinach seedling extracts; assay: DHS activity assay of crude extracts from de-etiolated spinach seedlings; type: biochemical, Spinacia oleracea; settings: 1 mM
Experimental: (§3) Spinach (S. oleracea) leaves were purchased at a local grocery store. For de-etiolated spinach seedlings, spinach was germinated on the soil and grown in the dark for 3 days, followed by exposure to normal growth light for 1 day for de-etiolation. More than 20 g of fully expanded mature leaves or whole de-etiolated seedlings were harvested and ground to a fine powder in a mortar and pestle with liquid nitrogen. After dissolving in 100 mL extraction buffer (20 mM HEPES [pH 7.6], 1 mM DTT and 0.1% β-mercaptoethanol) and filtrating with Miracloth, the samples were centrifuged at 10,000 × g for 10 min and subsequently at 50,000 × g for 30 min. […] The concentrated solution was desalted twice by Sephadex G50 column size-exclusion chromatography (GE Healthcare) into 1 mL of 50 mM HEPES (pH 7.4) and quantified by the Bradford assay ([Bradford, 1976]). […]
(§4) Unless otherwise noted, DHS enzymatic activity was monitored as previously described ([Liu et al., 2008]), with several optimizations for high-throughput assays with eight-strip PCR tubes and a thermal cycler. […] The absorbance of the pink supernatant was read at 549 nm with the microplate reader (Infinite 200 PRO, TECAN, Männedorf, Switzerland) to calculate DAHP production with the molar extinction coefficient at 549 nm (ε = 549 nm) of 4.5 × 10^4/M/cm. […]

[6] = system: total DHS activity in Arabidopsis leaf extracts; assay: DHS activity assay of crude extracts from Arabidopsis mature leaves; type: biochemical, Arabidopsis thaliana; settings: 1 mM; Col-0
[7] = system: total DHS activity in spinach leaf extracts; assay: DHS activity assay of crude extracts from spinach mature leaves; type: biochemical, Spinacia oleracea; settings: 1 mM
Experimental: as §3, §4

| SMILES | effect on DHS activity [1] | observed DHS activity of the enzyme mixtures versus theoretically calculated activity [2] | effect on AthDHS1 activity (in words) (AthDHS1) | inhibition of DHS activity [3] [%] | effect on AthDHS3 activity (in words) (AthDHS3) | IC50 (AthDHS2) [µM] | IC50 ([4]; read-out: IC50 of root growth impairment) [µM] | IC50 ([4]; read-out: concentration giving 50% growth inhibition) [µM] | concentration that specifically impaired root growth ([4]; dhs3 mutant) [µM] | effect on DHS activity of de-etiolated spinach seedling extract [5] | effect on total DHS activity of Arabidopsis mature leaf extract [6] | IC50 (AthDHS1) [µM] | effect on total DHS activity of spinach mature leaf extract [7] | IC50 (AthDHS3) [µM] | IC50 (AthDHS3; varied effector concentrations, read-out: IC50 of AthDHS3 inhibition) [µM] | effect on AthDHS2 activity (in words) (AthDHS2; 1 mM effector) |
| --- | --- | --- | --- | --- | --- | --- | --- | --- | --- | --- | --- | --- | --- | --- | --- | --- |
| N[C@@H](Cc1c[nH]c2ccccc12)C(=O)O [Trp, L-tryptophan] | activation | significantly higher than theoretically calculated activities | significantly activated | 50 | activated | 225 | 140 | > 300 | ≥ 100 |  |  |  |  |  |  |  |
| O=C(O)/C=C/c1ccc(O)c(O)c1 [caffeate] |  |  | completely inhibited |  | completely inhibited |  |  |  |  | significantly reduced | more than half | 49.7 | more than half | 53.4 |  |  |
| C=C(O[C@@H]1C=C(C(=O)O)C=C[C@H]1O)C(=O)O [chorismate] |  |  | completely inhibited |  | completely inhibited | 52.5 |  |  |  | significantly reduced | more than half | 97.3 | more than half |  | 83 | completely inhibited |

From PMC8136874, “The entry reaction of the plant shikimate pathway is subjected to highly complex metabolite-mediated regulation” (The Plant Cell, 2021)
